Measurements taken from the supplement of paper PMC10307832.

Assays:
Experiment in all cases: relative viability (nuclei count vs DMSO), 5 days (fraction); higher = more cells survive
[1] = compound: Cn1cc(-c2cnn3c(N)c(Br)c([C@@H]4CCCNC4)nc23)cn1 + CC(=O)c1c(C)c2cnc(Nc3ccc(N4CCNCC4)cn3)nc2n(C2CCCC2)c1=O [Palbociclib] (partner 0.5 µM)
How it was run: (§1)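 Dosing by pin tool came one day after lung cancer cell lines were seeded in 1536-well plates, using either one drug or a fixed anchor-drug dose plus five library-drug doses (not always all listed) in √10 steps. After 5 days, nuclei were counted on 4× images. Relative viability is treated-well nuclei count divided by vehicle-well nuclei count, and values are medians of duplicate plates.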

[2] = compound: Cn1cc(-c2cnn3c(N)c(Br)c([C@@H]4CCCNC4)nc23)cn1 + CC(C)C[C@H](NC(=O)[C@H](Cc1ccccc1)NC(=O)c1cnccn1)B(O)O [Bortezomib] (partner 0.002 µM)
How it was run: as §1

[3] = compound: Cn1cc(-c2cnn3c(N)c(Br)c([C@@H]4CCCNC4)nc23)cn1 + COc1cc2c(Oc3ccc(NC(=O)C4(C(=O)Nc5ccc(F)cc5)CC4)cc3F)ccnc2cc1OCCCN1CCOCC1 [Foretinib] (partner 0.25 µM)
How it was run: as §1

[4] = compound: Cn1cc(-c2cnn3c(N)c(Br)c([C@@H]4CCCNC4)nc23)cn1 + CS(=O)(=O)N1CCN(Cc2cc3nc(-c4cccc5[nH]ncc45)nc(N4CCOCC4)c3s2)CC1 [Pictilisib] (partner 1 µM)
How it was run: as §1

Row | Cell Line | relative viability ([1]; first compound 0.05 µM) | relative viability ([1]; first compound 0.1581 µM) | relative viability ([1]; first compound 0.5 µM) | relative viability ([1]; first compound 1.581 µM) | relative viability ([1]; first compound 5 µM) | relative viability ([2]; first compound 0.05 µM) | relative viability ([2]; first compound 0.1581 µM) | relative viability ([2]; first compound 0.5 µM) | relative viability ([2]; first compound 1.581 µM) | relative viability ([2]; first compound 5 µM) | relative viability ([3]; first compound 0.05 µM) | relative viability ([3]; first compound 0.1581 µM) | relative viability ([3]; first compound 0.5 µM) | relative viability ([3]; first compound 1.581 µM) | relative viability ([3]; first compound 5 µM) | relative viability ([4]; first compound 0.05 µM) | relative viability ([4]; first compound 0.1581 µM) | relative viability ([4]; first compound 0.5 µM) | relative viability ([4]; first compound 1.581 µM) | relative viability ([4]; first compound 5 µM)
1 | LCLC-103H | 0.521 | 0.447 | 0.467 | 0.515 | 0.466 | 1.03 | 1.2 | 1.18 | 0.841 | 1.16 | 0.72 | 0.848 | 0.746 | 0.674 | 0.657 | 0.565 | 0.555 | 0.522 | 0.489 | 0.466
2 | LOU-NH91 | 0.544 | 0.539 | 0.47 | 0.506 | 0.52 | 0.504 | 0.492 | 0.513 | 0.442 | 0.481 | 0.928 | 0.879 | 0.91 | 0.926 | 0.781 | 0.518 | 0.515 | 0.527 | 0.535 | 0.511
3 | LU99A | 0.421 | 0.458 | 0.386 | 0.392 | 0.339 | 1.16 | 1.25 | 1.05 | 1.14 | 0.679 | 0.805 | 0.768 | 0.821 | 0.706 | 0.716 | 0.308 | 0.296 | 0.29 | 0.277 | 0.225
4 | LXF-289 | 0.618 | 0.663 | 0.585 | 0.555 | 0.654 | 1.01 | 1.09 | 0.978 | 0.88 | 0.994 | 0.996 | 1.02 | 1 | 0.94 | 1.03 | 0.827 | 0.907 | 0.896 | 0.712 | 0.825
5 | NCI-H23 | 0.568 | 0.496 | 0.552 | 0.34 | 0.25 | 1.08 | 1.28 | 1.01 | 0.473 | 0.239 | 1.02 | 0.987 | 0.907 | 0.615 | 0.53 | 0.576 | 0.506 | 0.395 | 0.313 | 0.198
6 | NCI-H322M | 0.424 | 0.458 | 0.452 | 0.463 | 0.393 | 1.2 | 1.32 | 1.22 | 1.21 | 1.26 | 0.91 | 0.62 | 0.854 | 0.563 | 0.297 | 0.542 | 0.5 | 0.421 | 0.475 | 0.377
7 | NCI-H441 | 0.191 | 0.189 | 0.199 | 0.172 | 0.193 | 1.05 | 0.585 | 0.87 |  | 0.448 | 0.99 | 1.38 | 1.13 | 0.957 | 0.725 | 0.669 | 0.56 | 0.478 | 0.527 | 0.46
8 | NCI-H460 | 0.227 | 0.144 | 0.0866 | 0.0886 | 0.0189 | 0.993 | 1.74 | 0.792 | 0.401 | 0.529 | 0.957 | 1.08 | 1.03 | 0.914 | 0.666 | 0.363 | 0.394 | 0.357 | 0.314 | 0.125
9 | NCI-H520 | 0.266 | 0.232 | 0.231 | 0.199 | 0.172 | 0.702 | 0.609 | 0.385 | 0.471 | 0.344 | 0.671 | 0.836 | 0.751 | 0.664 | 0.58 | 0.266 | 0.318 | 0.283 | 0.208 | 0.267
10 | NCI-H647 | 0.378 | 0.47 | 0.423 | 0.228 | 0.107 | 1.15 | 1.05 | 0.648 | 0.696 | 0.38 | 1.17 | 1.27 | 1.25 | 1.01 | 0.416 | 0.485 | 0.409 | 0.368 | 0.291 | 0.341
11 | NCI-H650 | 0.372 | 0.357 | 0.36 | 0.313 | 0.324 | 0.717 | 0.748 | 0.69 | 0.773 | 0.603 | 1.14 | 1.03 | 1.02 | 1 | 0.881 | 1.06 | 0.882 | 0.804 | 0.749 | 0.602
12 | NCI-H661 | 0.395 | 0.371 | 0.387 | 0.389 | 0.344 | 0.805 | 0.781 | 0.698 | 0.731 | 0.587 | 1.05 | 0.991 | 0.979 | 1.02 | 0.932 | 0.321 | 0.432 | 0.441 | 0.291 | 0.357
13 | NCI-H727 | 0.646 | 0.686 | 0.589 | 0.581 | 0.642 | 0.818 | 0.887 | 0.901 | 0.623 | 0.412 | 0.949 | 0.905 | 0.967 | 0.882 | 0.527 | 0.411 | 0.354 | 0.604 | 0.276 | 0.22
14 | NCI-H838 | 0.238 | 0.228 | 0.211 | 0.178 | 0.224 | 0.918 | 0.845 | 0.83 | 0.701 | 0.551 | 1.1 | 1.2 | 1.01 | 1.11 | 0.965 | 0.365 | 0.501 | 0.416 | 0.264 | 0.488
15 | NCI-H1355 | 0.371 | 0.425 | 0.397 | 0.385 | 0.382 | 1.23 | 1.33 | 1.17 | 1.15 | 1.24 | 1.05 | 1.21 | 0.967 | 0.89 | 0.955 | 0.402 | 0.474 | 0.467 | 0.408 | 0.342
16 | NCI-H1437 | 0.311 | 0.321 | 0.339 | 0.259 | 0.231 | 0.515 | 0.581 | 0.577 | 0.432 | 0.316 | 1.24 | 1.4 | 1.41 | 1.32 | 1.19 | 0.438 | 0.411 | 0.418 | 0.292 | 0.306
17 | NCI-H1650 | 0.248 | 0.366 | 0.281 | 0.244 | 0.254 | 0.185 | 0.171 | 0.215 | 0.189 | 0.196 |  | 1.3 | 1.2 | 1.05 | 0.658 | 0.66 | 0.654 | 0.681 | 0.479 | 0.24
18 | NCI-H1651 | 0.556 | 0.564 | 0.536 | 0.502 | 0.424 | 0.914 | 0.954 | 0.89 | 0.898 | 0.56 | 0.828 | 1 | 0.887 | 0.496 | 0.213 | 0.662 | 0.613 | 0.607 | 0.283 | 0.312
19 | NCI-H1666 | 0.674 | 0.654 | 0.649 | 0.615 | 0.618 | 1.09 | 0.804 | 0.786 | 0.802 | 0.721 | 0.936 | 1.05 | 0.888 | 1.05 | 0.919 | 0.657 | 0.429 | 0.338 | 0.464 | 0.413
20 | NCI-H1734 | 0.387 | 0.347 | 0.317 | 0.323 | 0.295 | 1.02 | 1.13 | 0.798 | 0.865 | 0.746 | 0.918 | 1.01 | 0.908 | 0.799 | 0.694 | 0.506 | 0.46 | 0.475 | 0.382 | 0.358
21 | NCI-H1755 | 0.467 | 0.494 | 0.459 | 0.449 | 0.425 | 1.04 | 1.03 | 0.952 | 0.879 | 0.711 | 0.997 | 0.943 | 0.91 | 0.95 | 0.821 | 0.472 | 0.411 | 0.452 | 0.292 | 0.334
22 | NCI-H1915 | 0.591 | 0.562 | 0.522 | 0.508 | 0.543 | 1.14 | 1.01 | 1.06 | 0.784 | 1.03 | 1.18 | 1.15 | 1.09 | 1.15 | 1.09 | 0.933 | 0.942 | 0.948 | 0.896 | 0.9
23 | NCI-H1975 | 0.654 | 0.58 | 0.476 | 0.449 | 0.27 | 0.444 | 0.403 | 0.296 | 0.32 | 0.31 | 0.965 | 0.995 | 0.738 | 0.807 | 0.884 | 0.308 | 0.264 | 0.308 | 0.222 | 0.248
24 | NCI-H1993 | 0.645 | 0.704 | 0.584 | 0.564 | 0.471 | 1.09 | 1.16 |  | 0.931 | 0.846 | 0.747 | 0.806 | 0.483 | 0.667 | 0.657 | 0.816 | 0.789 |  | 0.819 | 0.686
25 | NCI-H2009 | 0.237 | 0.177 | 0.185 | 0.18 | 0.113 | 1.01 | 1.06 | 0.972 | 0.834 | 0.826 | 1.24 | 1.32 | 1.05 | 1.16 | 1.14 | 0.712 | 0.873 | 0.714 | 0.517 | 0.552
26 | NCI-H2023 | 0.341 | 0.335 | 0.191 | 0.18 | 0.128 | 1.04 | 0.923 | 0.733 | 0.235 | 0.147 | 0.785 | 0.604 | 0.688 | 0.201 | 0.178 | 0.268 | 0.226 | 0.194 | 0.143 | 0.11
27 | NCI-H2085 | 0.46 | 0.521 | 0.51 | 0.471 | 0.385 | 1.12 | 1.13 | 1.08 | 0.813 | 0.909 | 0.917 | 0.944 | 0.986 | 0.894 | 0.625 | 0.508 | 0.441 | 0.57 | 0.403 | 0.469
